Measurements reported in patent publication US20050239813A1, “Pharmaceutical compositions comprising fk506 derivatives and their use for the treatment of allergic diseases” (Sucampo Pharmaceuticals Inc., priority 2002, published 2005).

Tested on: Human patients with a history of allergy
Assay: Allergen challenge of human patients after FK506 eye drops; ocular itching score
Assay type: in vivo
Experimental: Human patients with a history of allergy were divided into 5 groups and treated in one eye with eye drop (placebo, 0.01% FK506, 0.03% FK506, 0.06% FK506 or 0.1% FK506), and the other eye with placebo. Each eye drop was administered 4 times per day for seven days and 16 hours after the final instillation, patients were administered allergen-containing eye drops at a concentration predetermined to cause a reaction in the patient. The one hundred patients having a baseline itching score of at lease 3, on a scale of 0 to 4, with 4 being most severe, were evaluated.

SMILES: C=CC[C@@H]1/C=C(\C)C[C@H](C)C[C@H](OC)[C@H]2O[C@@](O)(C(=O)C(=O)N3CCCC[C@H]3C(=O)O[C@H](/C(C)=C/[C@@H]3CC[C@@H](O)[C@H](OC)C3)[C@H](C)[C@@H](O)CC1=O)[C@H](C)C[C@@H]2OC [FK506, 17-allyl-1,14-dihydroxy-12-[2-(4-hydroxy-3-methoxycyclohexyl)-1-methylvinyl]-23,25-dimethoxy-13,19,21,27-tetramethyl-11,28-dioxa-4-azatricyclo[22.3.1.0^4,9]octacos-18-ene-2,3,10,16-tetraone]
- decrease from baseline itching score versus placebo (3 minutes post challenge, all concentrations (0.01%, 0.03%, 0.06%, 0.1% eye drops), 4 times per day for seven days, challenge 16 hours after final instillation): statistically significant versus placebo
- decrease from baseline itching score: dose response (eye drops 0.01%, 0.03%, 0.06% or 0.1% FK506, 4 times per day for seven days, allergen challenge 16 hours after final instillation, itching scale 0 to 4, FIG. 1): pronounced dose response
